From PMC11345766, “Computational Design of Pore-Forming Peptides with Potent Antimicrobial and Anticancer Activities” (Journal of Medicinal Chemistry, 2024)
Values after ≈ are worked out from the molar mass of the structure shown.

Tests used:
E. coli (TOP10) = test: Broth microdilution antimicrobial susceptibility assay; assay type: cell-based, Escherichia coli; settings: Escherichia coli; 24 h, MHB
Excerpt: (§1) To test antimicrobial activity, all peptides were initially screened, in a broth microdilution assay, against Gram-negative Escherichia coli (TOP10) and Gram-positive Staphylococcus carnosus (CCM 4838T) Biosafety Level 1 (BSL-1) bacteria (Table 2). […] Four other mutants (LP3, LP26, LP36, and LP39) had higher activity than LP1 against E. coli, and two mutants (LP23 and LP32) had higher activity than LP1 against S. carnosus. Six mutants (LP29, LP30, LP31, LP33, LP40, and LP43) were not active against one or both bacteria, even at the highest concentration tested (50 μM).
(§2) Antimicrobial activity against E. coli TOP10 and S. carnosus CCM 4838T was tested using the broth microdilution assay. Bacteria were cultured in MHA Petri dish for 24 h, subcultured in an MHB test tube for 6 h at 37 °C, and diluted to 10^6 CFU/mL (OD600). […] Dilution series was prepared for concentrations 50 to 0.1 μM in a flat-bottom 96-well plate, inoculated with bacteria, and incubated for 24 h at 37 °C. Growth control wells were free from test compounds, and sterility control wells were free from bacteria. Bacterial MIC was determined as the lowest concentration of test compounds that inhibited visible growth of bacteria (i.e., no visible turbidity).

S. carnosus (CCM 4838T) = test: microbe, parasite or virus in culture; assay type: cell-based, Staphylococcus carnosus; settings: Staphylococcus carnosus; 24 h, MHB; read-out: Antimicrobial activity (MIC) S. carnosus (CCM 4838T)
Excerpt: as §1, §2

ESKAPEE pathogens [1] = test: MIC against five commercially available ESKAPEE strains (Figure 3a); assay type: cell-based
Procedure: First, LP1 and five mutants (LP3, LP8, LP18, LP22, and LP28) were tested against five commercially available ESKAPEE strains (Figure 3a). Promising activity was obtained against Gram-negative Acinetobacter baumannii (GSAB 164), which is resistant to colistin and meropenem, followed by a quality control strain of E. coli (ATCC 25922). Micromolar activity, i.e., MIC of 1 μM, was obtained with both LP1 and LP18.
(Protocol a) Antimicrobial activity test against ESKAPEE strains S. aureus NRS 1, K. pneumoniae ATCC 700603, A. baumannii GSAB 164, P. aeruginosa NCTC 13437, and E. coli ATCC 25922 was purchased from Evotec (UK).

ESKAPEE pathogens [2] = test: MIC against six reference strains of ESKAPEE pathogens (Figure 3b); assay type: cell-based
Excerpt: The effect of net charge was further investigated against six reference strains of ESKAPEE pathogens (Figure 3b).

ESKAPEE pathogens [3] = test: MIC against nine ampicillin-resistant ESKAPEE strains (Figure 3d); assay type: cell-based; settings: 72 h
A498 = test: cells; assay type: cell-based; settings: Homo sapiens, Kidney, DMEM + 10% FCS, 72 hours
Procedure: (§3) The CellTiter-Glo luminescent cell viability assay examining the impact of peptides on 22 different human cell lines was purchased from Reaction Biology Europe GmbH (Germany). Cells were cultured in different media (Table S1), seeded into a flat-bottom 96-well plate, and incubated at 37 °C. After overnight incubation, test compounds were added with 1% PBS/0.3% Tween 20 and the reference compound bortezomib was added with 0.1% DMSO. Negative controls were solvents alone, and positive control was 10 μM staurosporine. After 72 h of incubation at 37 °C, 5 or 10% CO2 (dependent on the medium), and 1 h equilibration at room temperature, well plates were treated with CellTiter-Glo reagent (Promega) for an hour and luminescence was measured using a luminometer.
(§4) Table S1. In vitro activity against 22 different human cancer cell lines.
(§5) Sr. Cancer Activity (in M)
(§6) no. Cell line type Culture medium
(§7) The effect of investigated compounds on the proliferation of 22 different human cell lines is
(§8) Twenty of these 22 cell lines represent specific cancer types and 2 were non-cancerous. Peptide
(§9) Anticancer drug bortezomib was used as the […]

A549 = test: cells; assay type: cell-based; settings: Homo sapiens, Lung, DMEM + 10% FCS, 72 hours
Procedure: as §3, §4, §5, §6, §7, §8, §9

Caki-1 = test: cells; assay type: cell-based; settings: Homo sapiens, Kidney, DMEM + 10% FCS, 72 hours
Procedure: as §3, §4, §5, §6, §7, §8, §9

DU-145 = test: cells; assay type: cell-based; settings: Homo sapiens, Prostate, DMEM + 10% FCS, 72 hours
Procedure: as §3, §4, §5, §6, §7, §8, §9

H460 = test: cells; assay type: cell-based; settings: Homo sapiens, NCI-H460; Lung; DMEM + 10% FCS; 72 hours
Procedure: as §3, §4, §5, §6, §7, §8, §9

HCT116 = test: cells; assay type: cell-based; settings: Homo sapiens, HCT-116; Colorectal; DMEM + 10% FCS; 72 hours
Procedure: as §3, §4, §5, §6, §7, §8, §9

HL-60 = test: cells; assay type: cell-based; settings: Homo sapiens, Leukemia, RPMI-1640 + 10% FCS, 72 hours
Procedure: as §3, §4, §5, §6, §7, §8, §9

K562 = test: cells; assay type: cell-based; settings: Homo sapiens, Leukemia, RPMI-1640 + 10% FCS, 72 hours
Procedure: as §3, §4, §5, §6, §7, §8, §9

MCF-7 = test: cells; assay type: cell-based; settings: Homo sapiens, MCF7; Breast; DMEM + 10% FCS; 72 hours
Procedure: as §3, §4, §5, §6, §7, §8, §9

MDA MB 231 = test: cells; assay type: cell-based; settings: Homo sapiens, Breast, DMEM + 10% FCS, 72 hours
Procedure: as §3, §4, §5, §6, §7, §8, §9

MOLT-4 = test: cells; assay type: cell-based; settings: Homo sapiens, Leukemia, DMEM + 10% FCS, 72 hours
Procedure: as §3, §4, §5, §6, §7, §8, §9

MSC_UC = test: cells; assay type: cell-based; settings: Homo sapiens; Non-cancerous; Promocell MSC-Medium C-28010 + Sup. C39810; 72 hours
Procedure: as §3, §4, §5, §6, §7, §8, §9

NHDF = test: cells; assay type: cell-based; settings: Homo sapiens; Non-cancerous; Promocell NHDF-Medium C-23010 + Sup. C39315; 72 hours
Procedure: as §3, §4, §5, §6, §7, §8, §9

PC3 = test: cells; assay type: cell-based; settings: Homo sapiens, PC-3; Prostate; DMEM + 10% FCS; 72 hours
Procedure: as §3, §4, §5, §6, §7, §8, §9

SK-OV3 = test: cells; assay type: cell-based; settings: Homo sapiens, SK-OV-3; Ovarian; DMEM + 10% FCS; 72 hours
Procedure: as §3, §4, §5, §6, §7, §8, §9

SW620 = test: cells; assay type: cell-based; settings: Homo sapiens, SW-620; Colorectal; DMEM + 10% FCS; 72 hours
Procedure: as §3, §4, §5, §6, §7, §8, §9

T-47D = test: cells; assay type: cell-based; settings: Homo sapiens, T47D; Breast; RPMI-1640 +10% FCS + 0,2U/mL Insulin; 72 hours
Procedure: as §3, §4, §5, §6, §7, §8, §9

U251MG = test: cells; assay type: cell-based; settings: Homo sapiens, U-251; Brain; DMEM + 10% FCS; 72 hours
Procedure: as §3, §4, §5, §6, §7, §8, §9

HCT-15 = test: cells; assay type: cell-based, human; settings: Homo sapiens, HCT-15; Colorectal; RPMI-1640 +10% FCS; 72 hours; read-out: Activity (in M), IC50
Procedure: as §3, §4, §5, §6, §7, §8, §9

MDA MB 435 = test: cells; assay type: cell-based, human; settings: Homo sapiens, MDA-MB-435; Melanoma; RPMI-1640 +10% FCS; 72 hours; read-out: Activity (in M), IC50
Procedure: as §3, §4, §5, §6, §7, §8, §9

OVCAR-3 = test: cells; assay type: cell-based, human; settings: Homo sapiens, OVCAR-3; Ovarian; RPMI-1640 +10% FCS; 72 hours; read-out: Activity (in M), IC50
Procedure: as §3, §4, §5, §6, §7, §8, §9

RPMI 8226 = test: cells; assay type: cell-based, human; settings: Homo sapiens, RPMI-8226; Myeloma; RPMI-1640 +10% FCS; 72 hours; read-out: Activity (in M), IC50
Procedure: as §3, §4, §5, §6, §7, §8, §9

CC1(C)S[C@@H]2[C@H](NC(=O)[C@H](N)c3ccccc3)C(=O)N2[C@H]1C(=O)O [Ampicillin]
MIC (E. coli (TOP10)): 12.5 µM (≈ 4.37 µg/mL) | MIC (S. carnosus (CCM 4838T)): 0.1 µM (≈ 0.0349 µg/mL) | MIC (ESKAPEE pathogens [1]): > 180 µM | MIC (ESKAPEE pathogens [2]): > 92 µM | MIC (ESKAPEE pathogens [3]): > 360 µM

CC(C)C[C@H](NC(=O)[C@H](Cc1ccccc1)NC(=O)c1cnccn1)B(O)O [Bortezomib]
IC50 (A498): 9.1 nM | IC50 (A549): 25 nM | IC50 (Caki-1): 12 nM | IC50 (DU-145): 16 nM | IC50 (H460): 26 nM | IC50 (HCT116): 6.9 nM | IC50 (HL-60): 4.1 nM | IC50 (K562): 9.1 nM | IC50 (MCF-7): 21 nM | IC50 (MDA MB 231): 12 nM | IC50 (MOLT-4): 4 nM | IC50 (MSC_UC): 4.7 nM | IC50 (NHDF): 14 nM | IC50 (PC3): 16 nM | IC50 (SK-OV3): 19 nM | IC50 (SW620): 10 nM | IC50 (T-47D): 8.6 nM | IC50 (U251MG): 19 nM | IC50 (HCT-15): 9.8 nM | IC50 (MDA MB 435): 4.3 nM | IC50 (OVCAR-3): 4 nM | IC50 (RPMI 8226): 3.2 nM
